# According to PubChem BioAssay (NCI):
#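 Method: 48-hour compound exposure of cells in 96-well plates, five concentrations, linear interpolation of endpoints. GI50 is the concentration that inhibits growth by half. TGI: concentration producing complete growth inhibition.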
# Key:
# Assay in all cases: NCI tumour cell line growth inhibition, 48 h
# [1] = system: P388/ADR leukemia
# [2] = system: KM20L2 colon
# [3] = system: NCI-H522 lung
# [4] = system: KM12 colon
# [5] = system: M19-MEL melanoma
# [6] = system: SNB-78 CNS
# [7] = system: HCT-15 colon
# [8] = system: MDA-MB-231 breast
# [9] = system: DU-145 prostate
# [10] = system: HS 578T breast
# [11] = system: PC-3 prostate
# [12] = system: T-47D breast
Compound,TGI [1] [µM],TGI [2] [µM],TGI [3] [µM],TGI [4] [µM],TGI [5] [µM],TGI [6] [µM],TGI [7] [µM],GI50 [3] [µM],GI50 [8] [µM],TGI [8] [µM],GI50 [9] [µM],TGI [9] [µM],GI50 [10] [µM],TGI [10] [µM],TGI [11] [µM],TGI [12] [µM],GI50 [4] [µM],GI50 [11] [µM],GI50 [7] [µM],GI50 [12] [µM]
COc1cc2c(cc1OC)C(C(c1ccccc1)c1ccccc1)N(C)CC2 (stereo not drawn),> 100,> 73.7,> 100,> 100,> 100,> 100,> 100,,,,,,,,,,,,,
O=C1CCC(c2ccccc2)=NN1c1nsc2ccccc12,,> 100,,> 100,> 100,> 100,> 100,,,,,,,,,,,,,
COc1cnc2c(c1)C(=O)c1c-2n(CCCN2CCOCC2)c(=O)c2cc(Cl)ccc12,,,> 100,,,,,0.244,> 100,> 100,0.41,> 100,24.9,> 100,,,,,,
O=c1oc2cc(O)ccc2c(O)c1C(c1ccccc1)c1c(O)c2ccc(O)cc2oc1=O,,,,,,,> 100,,,> 100,,> 100,,> 100,> 100,> 100,,,,
C[n+]1c(/C=C/c2c(O)ccc3ccccc23)ccc2ccccc21,,,10.2,11.2,,,13.1,2.52,5.27,12.2,6.76,13.9,5.3,21.5,11.7,14.7,4.33,4,5.84,4.32
COc1cccc(N2C(Cl)C(=O)C2c2c[nH]c3ccccc23)c1 (stereo not drawn),,> 100,> 100,> 100,> 100,,,,,,,,,,,,,,,
C[N+](C)([O-])CCOc1cc2c(c3ccccc13)-c1ccccc1C2=O,> 45.2,> 63.5,26.5,66.5,36.2,> 91.1,> 100,,,,,,,,,,,,,
O=C1CC2(CCC(O)(c3ccc4ccccc4c3)C(C(=O)c3ccc4ccccc4c3)C2)C(=O)c2ccccc2N1 (stereo not drawn),,,,,,,,,,> 100,,> 100,,> 100,> 100,> 100,,,,
